According to patent US8666718B2, “Structure of the C-terminal region of the insulin receptor α-chain and of the insulin-like growth factor receptor α-chain” (The Walter and Eliza Hall Institute of Medical Research, priority 2009, dated 2014):
Where two headings read alike, the source gives them in different places. Bridge positions count the residues as written; N and C are the ends. Ends that are not written are not given here. Peptide text beside a SMILES is read from it.

What was measured:
[1] = molecular target: T1, IR485 (first three N-terminal domains of the human insulin receptor) (Homo sapiens, UniProt P06213, I448T/Q492K/Y171H); assay: ITC titration of hormones, αCT peptides and insulin mimetic peptides against IR485; type: binding; settings: for ΔH^0 / −TΔS^0: sample IR485 alone, mean of three ± SEM
T1 construct: made in house; host or cells: Lec8 mutant CHO cells
Excerpt: In order to study ligand binding to the first three domains of IR ectodomain, isothermal titration calorimetry (ITC) was used. ITC allowed a direct assay of the interactions between the IR ectodomain classical αCT peptide (residues 704-719; SEQ ID NO: 11) and IR485 (a construct consisting of the first three N-terminal domains of the IR; SEQ ID NO: 10), as well as the interaction between the analogous peptide of human IGF-1R and IR485. At the same time the thermodynamics of binding of the N- and C-terminal segments of the insulin mimetic peptide S519 (Schäffer et al., 2003) to IR485, as well as the binding of S519 itself to IR485 were examined. S519 ([…]; SEQ ID NO: 16) is a 36-residue peptide resulting from the affinity-optimization of two covalently-linked peptides, S371, a so-called “Site 1” peptide, and S446, a so-called “Site 2” peptide (Pillutla et al., 2002). […] Finally, the binding to IR485 of the IR αCT peptide carrying a F714A mutation (residues 704-719, […]; SEQ ID NO: 12) was examined.
The IR485 construct of human IR was expressed in Lec8 mutant CHO cells and purified by gel filtration chromatography as described previously (Lou et al., 2006). IR485 consists of the first 485 residues of the mature human insulin receptor followed by the 16-residue sequence […] (SEQ ID NO: 10), which comprises a serine residue followed by an enterokinase cleavage site and a c-myc epitope tag. The c-myc tag was not removed for the ITC studies described here. IR485 was concentrated to 30 mg/ml in Tris-buffered saline (TBSA; 24.8 mM Tris-HCl (pH 8.0), 137 mM NaCl, 2.7 mM KCl and 0.02% sodium azide) using an Ultrafree centrifugal concentrator (Millipore, USA). Porcine insulin (Sigma-Aldrich, USA) was prepared in a zinc-free-form (termed ZFP-insulin) by extensive dialysis against 0.1% (v/v) acetic acid followed by lyophilization. Human IGF-I was obtained from Novozymes GroPep (Australia) as “receptor grade” material.
The IR classical αCT peptide (residues 704-719, […]; SEQ ID NO: 11), the IGF-1R classical αCT peptide (residues 691-706, […]; SEQ ID NO: 14) as well as the F714A mutant of IR αCT (denoted IR αCT.714A; SEQ ID NO: 12) were obtained from Genscript Corporation (USA) at the >98% level of purity. The S519N20 peptide ([…]; SEQ ID NO: 17) and the S519C16 peptide ([…]; SEQ ID NO: 18) were obtained from AusPep (Australia) at the >90% level of purity. The S519 peptide ([…]; SEQ ID NO: 16) was obtained from Activotec (UK) at the >85% purity. Peptides were prepared by dissolving in 10 mM HCl at ˜4 mg/ml concentration and then diluting with TBSA. Oxidation of peptides S519N20 and S519 (which contain two cysteine residues) was carried out by incubating the respective peptide (prepared at 1 mg/ml in 50 mM ammonium bicarbonate adjusted to pH 8.5 with ammonia solution) in the dark at room temperature for 2 days and then lyophilizing before use. Oxidation was complete as determined by analysis with Ellman's reagent (5,5′-dithiobis-2-nitrobenzoate). All protein concentrations were determined by absorbance measurement at 280 nm using a NanoDrop 1000 spectrophotometer (Thermo Scientific, USA).
ITC experiments were performed using a VP-ITC isothermal titration calorimeter (MicroCal Inc., USA) with the calorimeter cell held at 25° C. All samples were degassed prior to injection or placement into the cell, and the instrument was temperature equilibrated prior to the start of the injections. In all experiments the volume of sample placed in the cell was 1.4 ml and the titrant was injected in 7 μl volumes over 14 s at 3 min intervals, with the total number of injections being 40. The sample contents were stirred at a speed of 310 rpm over the duration of the titration. All titrants (i.e. ZFP-insulin, IGF-I, IR αCT peptide, IGF-1R αCT peptide, IR αCT.714A peptide, S519, S519N20, and […]) were first injected into a solution of TBSA alone in order ascertain the heat of dilution, which was then subtracted from the data of interest as appropriate. […]

[2] = molecular target: T2, IR485 pre-complexed with a 10-fold molar ratio of IR classical αCT peptide (Homo sapiens, UniProt P06213, I448T/Q492K/Y171H); assay: ITC titration against IR485 pre-complexed with a 10-fold molar ratio of IR αCT peptide; type: binding; settings: 25° C., IR485 + 10 × IR-αCT, mean of three ± SEM
T2 construct: host or cells: Lec8 mutant CHO cells (IR485)
Experimental: (§1) The IR485 construct of human IR was expressed in Lec8 mutant CHO cells and purified by gel filtration chromatography as described previously (Lou et al., 2006). IR485 consists of the first 485 residues of the mature human insulin receptor followed by the 16-residue sequence […] (SEQ ID NO: 10), which comprises a serine residue followed by an enterokinase cleavage site and a c-myc epitope tag. The c-myc tag was not removed for the ITC studies described here. IR485 was concentrated to 30 mg/ml in Tris-buffered saline (TBSA; 24.8 mM Tris-HCl (pH 8.0), 137 mM NaCl, 2.7 mM KCl and 0.02% sodium azide) using an Ultrafree centrifugal concentrator (Millipore, USA). Porcine insulin (Sigma-Aldrich, USA) was prepared in a zinc-free-form (termed ZFP-insulin) by extensive dialysis against 0.1% (v/v) acetic acid followed by lyophilization.
Peptides were prepared by dissolving in 10 mM HCl at ˜4 mg/ml concentration and then diluting with TBSA. Oxidation of peptides S519N20 and S519 (which contain two cysteine residues) was carried out by incubating the respective peptide (prepared at 1 mg/ml in 50 mM ammonium bicarbonate adjusted to pH 8.5 with ammonia solution) in the dark at room temperature for 2 days and then lyophilizing before use. […] All protein concentrations were determined by absorbance measurement at 280 nm using a NanoDrop 1000 spectrophotometer (Thermo Scientific, USA).
ITC experiments were performed using a VP-ITC isothermal titration calorimeter (MicroCal Inc., USA) with the calorimeter cell held at 25° C. All samples were degassed prior to injection or placement into the cell, and the instrument was temperature equilibrated prior to the start of the injections. In all experiments the volume of sample placed in the cell was 1.4 ml and the titrant was injected in 7 μl volumes over 14 s at 3 min intervals, with the total number of injections being 40. […] Data were analyzed using the instrument's software incorporated within the Origin 7 software (OriginLab, USA) and in all cases fitted as a single-site interaction using the methodologies outlined in the instrument's manual.

human IR = human IR (Homo sapiens, UniProt P06213); settings: Schäffer et al., 2003; cited from earlier work
ZFP-insulin = molecular target: T3, ZFP-insulin (Sus scrofa, UniProt P01315); assay: ITC titration of IR αCT peptide against ZFP-insulin; type: binding, Porcine; settings: 25° C.
T3 construct: purchased Sigma-Aldrich
Experimental: as §1, with “Porcine insulin (Sigma-Aldrich, USA) was prepared in a zinc-free-form (termed ZFP-insulin) by extensive dialysis against 0.1% (v/v) acetic acid followed by lyophilization.” left out
(§2) Peptides were prepared by dissolving in 10 mM HCl at ˜4 mg/ml concentration and then diluting with TBSA. […] All protein concentrations were determined by absorbance measurement at 280 nm using a NanoDrop 1000 spectrophotometer (Thermo Scientific, USA).
(§3) ITC experiments were performed using a VP-ITC isothermal titration calorimeter (MicroCal Inc., USA) with the calorimeter cell held at 25° C. […] Data were analyzed using the instrument's software incorporated within the Origin 7 software (OriginLab, USA) and in all cases fitted as a single-site interaction using the methodologies outlined in the instrument's manual.

IGF-I = molecular target: T4, IGF-I (Homo sapiens, UniProt P05019); assay: ITC titration of IGF-1R αCT peptide against IGF-I; type: binding; settings: 25° C.
T4 construct: purchased Novozymes GroPep (Australia)
Experimental: as §1, with “Porcine insulin (Sigma-Aldrich, USA) was prepared in a zinc-free-form (termed ZFP-insulin) by extensive dialysis against 0.1% (v/v) acetic acid followed by lyophilization.” left out
as §2, §3

[3] = molecular target: T5, IR485 pre-complexed with a 10-fold molar ratio of IGF-1R classical αCT peptide (Homo sapiens, UniProt P06213+P08069, I448T/Q492K/Y171H); assay: ITC titration against IR485 pre-complexed with a 10-fold molar ratio of IGF-1R αCT peptide; type: binding; settings: 25° C., IR485 + 10 × IGF1R-αCT, mean of three ± SEM
T5 construct: host or cells: Lec8 mutant CHO cells (IR485)
Experimental: as §1, with “Porcine insulin (Sigma-Aldrich, USA) was prepared in a zinc-free-form (termed ZFP-insulin) by extensive dialysis against 0.1% (v/v) acetic acid followed by lyophilization.” left out
as §2, §3

T1 sequence (P06213 with tags, fused parts or gaps Y171H/I448T/Q492K): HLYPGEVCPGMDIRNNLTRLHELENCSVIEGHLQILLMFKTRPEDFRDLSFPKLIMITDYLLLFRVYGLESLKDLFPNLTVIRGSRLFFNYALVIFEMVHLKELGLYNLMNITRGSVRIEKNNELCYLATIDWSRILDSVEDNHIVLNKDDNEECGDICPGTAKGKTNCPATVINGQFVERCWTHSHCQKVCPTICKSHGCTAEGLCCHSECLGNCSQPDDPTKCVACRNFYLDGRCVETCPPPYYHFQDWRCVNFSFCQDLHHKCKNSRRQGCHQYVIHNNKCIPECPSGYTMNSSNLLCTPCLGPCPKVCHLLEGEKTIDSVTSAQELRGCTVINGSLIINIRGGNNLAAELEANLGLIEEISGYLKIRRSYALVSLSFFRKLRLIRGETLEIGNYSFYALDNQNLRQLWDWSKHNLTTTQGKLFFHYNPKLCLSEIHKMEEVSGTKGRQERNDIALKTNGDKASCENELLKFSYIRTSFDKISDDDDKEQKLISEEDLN
T2 sequence (P06213 with tags, fused parts or gaps Y171H/I448T/Q492K limits assumed, other chains not shown): as the sequence (P06213 with tags, fused parts or gaps Y171H/I448T/Q492K) above
T3 sequence (P01315 25-54 limits assumed): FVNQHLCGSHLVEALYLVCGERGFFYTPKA
T3 sequence (P01315 88-108 limits assumed): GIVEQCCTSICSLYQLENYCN
T4 sequence (P05019 49-118 limits assumed): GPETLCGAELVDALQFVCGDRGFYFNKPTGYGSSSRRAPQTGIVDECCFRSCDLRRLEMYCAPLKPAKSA
Chain of human IR (P06213 28-758 limits assumed): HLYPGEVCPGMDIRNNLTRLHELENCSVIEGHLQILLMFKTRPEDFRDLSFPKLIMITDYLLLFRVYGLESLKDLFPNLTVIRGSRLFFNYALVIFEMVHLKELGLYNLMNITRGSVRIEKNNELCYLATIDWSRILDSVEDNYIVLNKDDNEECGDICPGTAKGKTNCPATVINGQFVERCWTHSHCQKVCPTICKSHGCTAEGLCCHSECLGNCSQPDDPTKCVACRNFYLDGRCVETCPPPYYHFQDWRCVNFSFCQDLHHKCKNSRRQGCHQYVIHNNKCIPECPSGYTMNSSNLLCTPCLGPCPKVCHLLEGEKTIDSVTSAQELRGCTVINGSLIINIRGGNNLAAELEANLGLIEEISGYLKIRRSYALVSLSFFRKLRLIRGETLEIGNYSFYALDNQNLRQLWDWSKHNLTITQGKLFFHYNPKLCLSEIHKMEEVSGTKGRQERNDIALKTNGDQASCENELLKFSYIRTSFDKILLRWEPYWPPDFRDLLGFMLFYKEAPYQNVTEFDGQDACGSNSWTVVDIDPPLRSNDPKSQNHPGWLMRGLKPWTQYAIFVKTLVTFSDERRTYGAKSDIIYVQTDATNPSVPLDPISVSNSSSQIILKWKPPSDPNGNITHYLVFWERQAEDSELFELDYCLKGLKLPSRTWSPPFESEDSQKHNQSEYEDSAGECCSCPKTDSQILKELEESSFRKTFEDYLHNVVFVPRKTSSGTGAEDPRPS
Chain of human IR (P06213 763-1382 partner limits assumed): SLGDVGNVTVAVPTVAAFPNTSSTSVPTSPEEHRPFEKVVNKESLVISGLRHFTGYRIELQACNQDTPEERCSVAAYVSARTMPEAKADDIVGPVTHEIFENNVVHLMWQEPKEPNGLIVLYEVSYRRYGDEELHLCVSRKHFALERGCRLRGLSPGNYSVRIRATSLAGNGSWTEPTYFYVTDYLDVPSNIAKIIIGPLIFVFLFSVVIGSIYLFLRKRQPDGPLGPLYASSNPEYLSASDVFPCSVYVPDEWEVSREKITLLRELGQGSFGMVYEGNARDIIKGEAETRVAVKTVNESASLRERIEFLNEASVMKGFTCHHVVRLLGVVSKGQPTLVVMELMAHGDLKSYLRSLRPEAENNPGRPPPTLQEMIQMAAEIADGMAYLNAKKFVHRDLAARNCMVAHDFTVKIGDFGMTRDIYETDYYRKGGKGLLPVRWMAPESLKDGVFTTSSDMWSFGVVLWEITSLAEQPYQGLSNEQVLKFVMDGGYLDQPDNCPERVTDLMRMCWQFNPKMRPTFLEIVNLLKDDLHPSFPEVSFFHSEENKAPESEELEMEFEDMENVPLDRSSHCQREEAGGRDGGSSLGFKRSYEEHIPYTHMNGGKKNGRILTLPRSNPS
T5 sequence (P06213 with tags, fused parts or gaps Y171H/I448T/Q492K limits assumed, other chains not shown): as the sequence (P06213 with tags, fused parts or gaps Y171H/I448T/Q492K) above

CC(C)C[C@H](NC(=O)[C@H](CCC(N)=O)NC(=O)[C@H](CCCNC(=N)N)NC(=O)[C@H](CCC(=O)O)NC(=O)[C@H](Cc1ccccc1)NC(=O)[C@H](Cc1c[nH]c2ccccc12)NC(=O)[C@H](CC(=O)O)NC(=O)[C@H](Cc1ccc(O)cc1)NC(=O)[C@H](Cc1ccccc1)NC(=O)[C@H](CO)NC(=O)[C@H](CCC(=O)O)NC(=O)[C@H](CC(=O)O)NC(=O)[C@H](CC(C)C)NC(=O)[C@H](CO)NC(=O)CN)C(=O)NCC(=O)O [S519C16]
Kd [1]: 0.0026 ± 0.0007 µM
ΔH^0 ([1]; ITC, 25° C.): -14.6 ± 0.96 kcal/mol
−TΔS^0 ([1]; ITC, 25° C.): 2.87 ± 0.96 kcal/mol
ΔH^0 [2]: -7.89 ± 0.48 kcal/mol
−TΔS^0 [2]: -2.63 ± 0.72 kcal/mol

CC(C)C[C@H](NC(=O)[C@@H](N)CO)C(=O)N[C@@H](CCC(=O)O)C(=O)N[C@@H](CCC(=O)O)C(=O)N[C@@H](CCC(=O)O)C(=O)N[C@@H](Cc1c[nH]c2ccccc12)C(=O)N[C@@H](C)C(=O)N[C@@H](CCC(N)=O)C(=O)N[C@H](C(=O)N[C@@H](CCC(=O)O)C(=O)N[C@H]1CSSC[C@@H](C(=O)N2CCC[C@H]2C(=O)N[C@@H](CO)C(=O)O)NC(=O)CNC(=O)[C@H](CCCNC(=N)N)NC(=O)CNC(=O)[C@H](Cc2ccc(O)cc2)NC(=O)[C@H](C(C)C)NC(=O)[C@H](CCC(=O)O)NC1=O)C(C)C [S519N20] (H-SLEEEWAQVECEVYGRGCPS-OH; disulfide 11-18)
Kd [1]: > 1000 µM

CC(C)C[C@H](NC(=O)[C@H](CCC(N)=O)NC(=O)[C@H](CCCNC(=N)N)NC(=O)[C@H](CCC(=O)O)NC(=O)[C@H](Cc1ccccc1)NC(=O)[C@H](Cc1c[nH]c2ccccc12)NC(=O)[C@H](CC(=O)O)NC(=O)[C@H](Cc1ccc(O)cc1)NC(=O)[C@H](Cc1ccccc1)NC(=O)[C@H](CO)NC(=O)[C@H](CCC(=O)O)NC(=O)[C@H](CC(=O)O)NC(=O)[C@H](CC(C)C)NC(=O)[C@H](CO)NC(=O)CNC(=O)[C@H](CO)NC(=O)[C@@H]1CCCN1C(=O)[C@@H]1CSSC[C@H](NC(=O)[C@H](CCC(=O)O)NC(=O)[C@@H](NC(=O)[C@H](CCC(N)=O)NC(=O)[C@H](C)NC(=O)[C@H](Cc2c[nH]c3ccccc23)NC(=O)[C@H](CCC(=O)O)NC(=O)[C@H](CCC(=O)O)NC(=O)[C@H](CCC(=O)O)NC(=O)[C@H](CC(C)C)NC(=O)[C@@H](N)CO)C(C)C)C(=O)N[C@@H](CCC(=O)O)C(=O)N[C@@H](C(C)C)C(=O)N[C@@H](Cc2ccc(O)cc2)C(=O)NCC(=O)N[C@@H](CCCNC(=N)N)C(=O)NCC(=O)N1)C(=O)NCC(=O)O [S519] (H-SLEEEWAQVECEVYGRGCPSGSLDESFYDWFERQLG-OH; disulfide 11-18; N-terminus and C-terminus assumed)
Kd [1]: 0.011 ± 0.003 µM
ΔH^0 ([1]; ITC, 25° C.): -16.5 ± 1.4 kcal/mol
−TΔS^0 ([1]; ITC, 25° C.): 5.74 ± 1.4 kcal/mol
Kd (human IR): 0.02 nM

TFEDYLHNVVAVPRPS [IR-αCT.714A]
Kd [1]: 6.5 ± 1.7 µM

TFEDYLHNVVFVPRPS [IR-αCT]
Kd [1]: 3.9 ± 1.1 µM
Kd (ZFP-insulin; interaction with ZFP-insulin, read-out: Kd (estimated, weaker than)): > 1000 µM
Kd (ZFP-insulin; sample ZFP-insulin 20 μM, titrant 200 μM, read-out: Kd): > 1000 µM

VFENFLHNSIFVPRPE [IGF1R-αCT]
Kd [1]: 17.6 ± 2.1 µM
Kd (IGF-I; interaction with IGF-I, read-out: Kd (estimated, weaker than)): > 1000 µM
Kd (IGF-I; sample IGF-I (printed IGF-IR) 20 μM, titrant 200 μM, read-out: Kd): > 1000 µM

ZFP-insulin: Porcine insulin (Sigma-Aldrich) prepared in a zinc-free form by dialysis against acetic acid and lyophilization
Kd [3]: 0.0057 ± 0.0011 µM
Kd ([1]; ITC, 25° C., TBSA, sample IR485, mean of three experiments ± SEM, single-site model, read-out: Kd): > 1000 µM
Kd [2]: 0.017 ± 0.004 µM
